The results in this text go back to patent US10689429B2, “Double-acylated GLP-1 compounds” (Novo Nordisk A/S, priority 2014, dated 2020).

Where two headings read alike, the source gives them in different places.

In data set [1] the target is T1, human GLP-1 receptor (Homo sapiens, UniProt P43220).
T1 construct: expressed in transfected cells; host or cells: membranes from BHK cells, parent line BHKTS13, clone FCW467-12A
Briefly: In vitro potency, CRE luciferase reporter gene assay in BHK cells expressing the human GLP-1 receptor.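 Note: firefly luciferase luminescence read after 3 h incubation at 37 °C, compounds tested in an eight-point series from 0.01 pM to 100 nM.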 The following applies: average of duplicates. It counts as cell-based.
Experimental: The in vitro potency is the measure of human GLP-1 receptor activation in a whole cell assay.
In vitro potency was determined by measuring the response of the human GLP-1 receptor in a reporter gene assay. The assay was performed in a stably transfected BHK cell line that expresses the human GLP-1 receptor and contains the DNA for the cAMP response element (CRE) coupled to a promoter and the gene for firefly luciferase (CRE luciferase). When the human GLP-1 receptor is activated it results in the production of cAMP, which in turn results in the luciferase protein being expressed. When assay incubation is completed the luciferase substrate (luciferin) is added and the enzyme converts luciferin to oxyluciferin to produce bioluminescence. The luminescence is measured as the readout for the assay.
An increase of the in vitro potency, EC50 value, in the presence of serum albumin would indicate an affinity to serum albumin and represents a method to predict a protracted pharmacokinetic profile of the test substance in animal models.
The cells were cultured at 5% CO2 in Cell Culture Medium. They were aliquoted and stored in liquid nitrogen. Before each assay an aliquot is taken up and washed twice in PBS before being suspended at the desired concentration in the assay specific buffer. For 96-well plates the suspension was made to give a final concentration of 5×10^3 cells/well.
Assay Medium consisted of DMEM w/o phenol red, 10 mM Hepes and 1× Glutamax. The 1% Assay Buffer consisted of 2% ovalbumin, 0.2% Pluronic F-68 and 2% HSA in Assay Medium. The 0% Assay Buffer consisted of 2% ovalbumin and 0.2% Pluronic F-68 in Assay Medium.
1) Cell stocks were thawed in a 37° C. water bath.
2) Cells were washed three times in PBS.
3) The cells were counted and adjusted to 5×10^3 cells/50 μl (1×10^5 cells/ml) in Assay Medium. A 50 μl aliquot of cells was transferred to each well in the assay plate.
4) Stocks of the test compounds and reference compounds were diluted to a concentration of 0.2 pM in 0% Assay Buffer for the 0% HSA CRE luciferase assay and 1% Assay Buffer for the 1% HSA CRE luciferase assay. […] Compounds were tested at the following final concentrations: 1×10^−7 M, 1×10^−8 M; 1×10^−9 M, 1×10^−10 M, 1×10^−11 M, 1×10^−12 M, 1×10^−13 M, and 1×10^−14 M. 6) The assay plate was incubated for 3 h in a 5% CO2 incubator at 37° C. […] 8) A 100 μl aliquot of steadylite plus reagent was added to each well of the assay plate (reagent was light sensitive). 9) Each assay plate was covered with aluminum foil to protect it from light and shaken for 30 min at room temperature. 10) Each assay plate was read in a Packard TopCount NXT instrument. Calculations and Results
The data from the TopCount instrument were transferred to GraphPad Prism software. The software performs a non-linear regression (log(agonist) vs response).
A minimum of two replicates was measured for each sample on separate assay plates. The reported values are averages of the duplicates. For some examples more than one assay was run and in this case the data reported are the averages of the averaged duplicates.

A short description of data set [2]: Pharmacodynamic (PD) study in pigs, effect on food intake. It counts as in vivo.
Experimental: The purpose of this experiment is to investigate the effect of the GLP-1 derivatives on food intake in pigs. This was done in a pharmacodynamic (PD) study as described below, in which food intake was measured from 1 to 4 days after administration of a single dose of the GLP-1 derivative, as compared to a vehicle-treated control group.
Female Landrace Yorkshire Duroc (LYD) pigs or Large White hybrid, approximately 3 months of age, weighing approximately 30-35 kg were used (n=3-4 per group). The animals were housed in a group for approximately 1 week during acclimatisation to the animal facilities. During the experimental period the animals were placed in individual pens at least 2 days before dosing and during the entire experiment for measurement of individual food intake.
The animals were fed ad libitum with pig fodder (Svinefoder Danish Top or HRC Sow and Weaner Diet) at all times both during the acclimatisation and the experimental period. Food intake was monitored on line by logging the weight of fodder every 15 minutes using the Mpigwin system (Ellegaard Systems, Faaborg, Denmark). Alternatively fodder was offered in the morning each day, and availability for the full 24-hour period was ensured. Any uneaten fodder was removed and weighed (manually) on the following morning, and replaced with fresh fodder.
The GLP-1 derivatives were dissolved in a phosphate buffer (50 mM sodium phosphate, 70 mM sodium chloride, 0.05% tween 80, pH 7.4) at concentrations of approximately 120 nmol/ml corresponding to doses of 3 nmol/kg. The phosphate buffer served as vehicle.
On the last day of each study, 2 or 4 days after dosing, a blood sample for measurement of plasma exposure of the GLP-1 derivative was taken from the heart in anaesthetised animals.
Food intake was calculated in 24 h intervals (0-24 h, 24-48 h, 48-72 h and 72-96 h).
The nature of data set [3]: Pharmacokinetic studies in Beagle dogs (i.v. and p.o.). The class given is in vivo. The following applies: dog, plasma; for half-life: iv, 2 nmol/kg, read-out: Beagle dogs iv PK, t½ (converted).
Experimental: Pharmacokinetic (PK) studies in Beagle dogs were conducted in order to determine a) the protraction of the GLP-1 derivatives after i.v. administration, and b) the bioavailability of the GLP-1 derivatives after p.o. administration.
By protraction is meant the prolongation of the time in the body and thereby the time of action of the GLP-1 derivatives. This was done in pharmacokinetic (PK) studies, where the terminal half-life of the derivative in question was determined. By terminal half-life is generally meant the period of time it takes to halve a certain plasma concentration, measured after the initial distribution phase.
The dogs were housed in pens (12 hours light: 12 hours dark) with softwood based granules as bedding, two together in each pen and fed restrictedly once daily with […] ™ Struvite Management Diet (Dechra Veterinary Products, UK). Exercise was permitted daily, whenever possible. The dogs were used for repeated pharmacokinetic studies with a suitable wash-out period between successive GLP-1 derivative dosings. An acclimatisation period of 4 weeks was allowed during which time the dogs were trained. All handling, dosing and blood sampling of the animals was performed by trained and skilled staff. The dogs were fasted overnight before dosing and from 0 to 4 h after dosing, but had ad libitum access to water during the whole period.
The dogs were housed in social groups (12 hours light: 12 hours dark), and fed individually and restrictedly once daily with Royal Canin Medium Adult dog (Royal Canin Products, China Branch, or Brogaarden A/S, Denmark). Exercise and group social was permitted daily, whenever possible. The dogs were used for repeated pharmacokinetic studies with a suitable wash-out period between successive GLP-1 derivative dosings. An appropriate acclimatisation period was given prior to initiation of the first pharmacokinetic study. All handling, dosing and blood sampling of the animals was performed by trained and skilled staff. Before the studies the dogs were fasted overnight and from 0 to 4 h after dosing. […]
Data set [4] is described as follows: Pharmacokinetic study in mini pigs after i.v. administration. It counts as in vivo. The following applies: female, Göttingen, pig, plasma, iv, 2 nmol/kg; read-out: Minipig iv PK, t½ (converted).
Experimental: The purpose of this study is to determine the protraction in vivo of the GLP-1 derivatives after i.v. administration to mini pigs, i.e. the prolongation of their time in the body and thereby their time of action. This was done in pharmacokinetic (PK) studies, where the terminal half-life of the derivative in question was determined. By terminal half-life is generally meant the period of time it takes to halve a certain plasma concentration, measured after the initial distribution phase.
Female Göttingen mini pigs obtained from Ellegaard Göttingen Minipigs (Dalmose, Denmark) at approximately 5 months of age and weighing approximately 10 kg were used in the studies. The mini pigs were housed in pens with straw as bedding, four to six together in each pen and fed restrictedly once or twice daily with Altromin 9023 mini pig diet (Chr. Petersen A/S, DK-4100 Ringsted). The pigs were used for repeated pharmacokinetic studies with a suitable wash-out period between successive GLP-1 derivative dosings. An acclimatisation period of 1 week was allowed during which time the mini pigs were trained to be fixated on the back for blood sampling and in slings for i.v. dosing. All handling, dosing and blood sampling of the animals was performed by trained and skilled staff.
The GLP-1 derivatives were dissolved in 50 mM sodium phosphate, 70 mM sodium chloride, 0.05% tween 80, pH 7.4 to a concentration of approximately 20 nmol/ml. Intravenous injections (the volume corresponding to usually 2 nmol/kg, for example 0.1 ml/kg) of the compounds were given as intravenous injections via a Venflon inserted in an ear vein, while the animals were placed un-anaesthetised in a sling. The dose volume was 0.1 ml/kg, and blood was sampled at predefined time points for up till 13 days post dosing (samples were taken with a syringe from a jugular vein). Blood samples (for example 0.8 ml) were collected in EDTA buffer (8 mM) and then centrifuged at 4° C. and 2000 G for 10 minutes.
Individual plasma concentration-time profiles were analysed by a non-compartmental model in WinNonlin v. […] 6.2 or 6.3 (Pharsight Inc., Mountain View, Calif., USA), or other relevant software for PK analysis, and the resulting terminal half-lives determined.
[5] abbreviates: EC50/pM (1% HSA), 1% HSA final assay concentration.

T1 sequence (P43220 24-463): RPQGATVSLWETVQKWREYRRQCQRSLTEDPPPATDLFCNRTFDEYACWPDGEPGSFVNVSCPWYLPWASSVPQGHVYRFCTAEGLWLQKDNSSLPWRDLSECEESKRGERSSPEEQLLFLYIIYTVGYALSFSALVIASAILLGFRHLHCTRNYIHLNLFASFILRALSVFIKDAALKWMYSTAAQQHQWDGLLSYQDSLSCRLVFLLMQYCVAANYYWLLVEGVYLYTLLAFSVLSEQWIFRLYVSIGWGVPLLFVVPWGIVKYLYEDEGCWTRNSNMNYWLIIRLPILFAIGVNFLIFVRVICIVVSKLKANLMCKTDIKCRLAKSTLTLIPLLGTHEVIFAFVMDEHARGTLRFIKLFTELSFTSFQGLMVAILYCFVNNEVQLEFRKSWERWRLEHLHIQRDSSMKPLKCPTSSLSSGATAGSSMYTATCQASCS

`CC[C@H](C)[C@H](NC(=O)[C@H](Cc1ccccc1)NC(=O)[C@H](CCC(=O)O)NC(=O)[C@H](CCCNC(=N)N)NC(=O)[C@H](C)NC(=O)[C@H](C)NC(=O)[C@H](CCC(N)=O)NC(=O)[C@H](CCC(=O)O)NC(=O)[C@H](CCC(=O)O)NC(=O)[C@H](CC(C)C)NC(=O)[C@H](Cc1ccc(O)cc1)NC(=O)[C@H](CO)NC(=O)[C@H](CO)NC(=O)[C@@H](NC(=O)[C@H](CC(=O)O)NC(=O)[C@H](CO)NC(=O)[C@@H](NC(=O)[C@H](Cc1ccccc1)NC(=O)[C@@H](NC(=O)CNC(=O)[C@H](CCC(=O)O)NC(=O)C(C)(C)NC(=O)[C@@H](N)Cc1c[nH]cn1)[C@@H](C)O)[C@@H](C)O)C(C)C)C(=O)N[C@@H](C)C(=O)N[C@@H](Cc1c[nH]c2ccccc12)C(=O)N[C@@H](CC(C)C)C(=O)N[C@H](C(=O)N[C@@H](CCCNC(=N)N)C(=O)NCC(=O)N[C@@H](CCCCNC(=O)COCCOCCNC(=O)COCCOCCNC(=O)COCCOCCNC(=O)COCCOCCNC(=O)CC[C@H](NC(=O)CCCCCCCCCCCCC(=O)O)C(=O)O)C(=O)N[C@@H](CCCCNC(=O)COCCOCCNC(=O)COCCOCCNC(=O)COCCOCCNC(=O)COCCOCCNC(=O)CC[C@H](NC(=O)CCCCCCCCCCCCC(=O)O)C(=O)O)C(=O)O)C(C)C` [Example 20]: the EC50 worked out at 2.7 pM in data set [1] (0% HSA, read-out: EC50/pM (0% HSA)) and 5.8 pM in data set [1] (setting [5]). The “PD in pig, food intake (% of vehicle) for hours 0-24” value in data set [2] (single s.c. dose 3 nmol/kg, 0-24 h, NS = not significantly different from vehicle) is on record as 10 % of vehicle. Also, the “PD in pig, food intake (% of vehicle) for hours 24-48” value in data set [2] (single s.c. dose 3 nmol/kg, 24-48 h, NS = not significantly different from vehicle) is 18 % of vehicle. In addition, the “PD in pig, food intake (% of vehicle) for hours 48-72” value in data set [2] (single s.c. dose 3 nmol/kg, 48-72 h, NS = not significantly different from vehicle) is 65 % of vehicle. For the same molecule, in data set [2] (single s.c. dose 3 nmol/kg, 72-96 h, NS = not significantly different from vehicle), the “PD in pig, food intake (% of vehicle) for hours 72-96” value is recorded as 81^NS % of vehicle. In data set [2] (single s.c. injection in pigs), the “reduction in food intake (in words)” value was “largest reduction in food intake”.

The term bioavailability denotes dose-corrected exposure relative to a reference, in per cent. High values mean good availability, low ones poor availability. `CC[C@H](C)[C@H](NC(=O)[C@H](Cc1ccccc1)NC(=O)[C@H](CCC(=O)O)NC(=O)[C@H](CCCNC(=N)N)NC(=O)[C@H](C)NC(=O)[C@H](C)NC(=O)[C@H](CCC(N)=O)NC(=O)[C@H](CCC(=O)O)NC(=O)[C@H](CCC(=O)O)NC(=O)[C@H](CC(C)C)NC(=O)[C@H](Cc1ccc(O)cc1)NC(=O)[C@H](CO)NC(=O)[C@H](CO)NC(=O)[C@@H](NC(=O)[C@H](CC(=O)O)NC(=O)[C@H](CO)NC(=O)[C@@H](NC(=O)[C@H](Cc1ccccc1)NC(=O)[C@@H](NC(=O)CNC(=O)[C@H](CCC(=O)O)NC(=O)C(C)(C)NC(=O)[C@@H](N)Cc1c[nH]cn1)[C@@H](C)O)[C@@H](C)O)C(C)C)C(=O)N[C@@H](C)C(=O)N[C@@H](Cc1c[nH]c2ccccc12)C(=O)N[C@@H](CC(C)C)C(=O)N[C@H](C(=O)N[C@@H](CCCNC(=N)N)C(=O)NCC(=O)N[C@@H](CCCCNC(=O)COCCOCCNC(=O)COCCOCCNC(=O)CC[C@H](NC(=O)CCCCCCCCCCOc1ccc(C(=O)O)cc1)C(=O)O)C(=O)N[C@@H](CCCCNC(=O)COCCOCCNC(=O)COCCOCCNC(=O)CC[C@H](NC(=O)CCCCCCCCCCOc1ccc(C(=O)O)cc1)C(=O)O)C(=O)O)C(C)C` [Example 1, N{Epsilon-36}-[2-[2-[2-[[2-[2-[2-[[(4S)-4-carboxy-4-[11-(4-carboxyphenoxy)undecanoylamino]butanoyl]amino]ethoxy]ethoxy]acetyl]amino]ethoxy]ethoxy]acetyl], N{Epsilon-37}-[2-[2-[2-[[2-[2-[2-[[(4S)-4-carboxy-4-[11-(4-carboxyphenoxy)undecanoylamino]butanoyl]amino]ethoxy]ethoxy]acetyl]amino]ethoxy]ethoxy]acetyl]-[Aib8,Glu22,Arg26,Arg34,Lys36,Lys37]-GLP-1-(7-37)-peptide]: the EC50 in data set [1] (EC50/pM (0% HSA), 0% HSA) was determined as 1.2 pM; in data set [1] (setting [5]), 136 pM. Moreover, the half-life was 85 h in data set [3] and 103 h in data set [4]. In addition, the bioavailability in data set [3] (po, absolute bioavailability (F), enteric coated sodium caprate tablet with approximately 10 mg derivative (Example 33)) was determined as 2.4%.

As to `CC[C@H](C)[C@H](NC(=O)[C@H](Cc1ccccc1)NC(=O)[C@H](CCC(=O)O)NC(=O)[C@H](CCCNC(=N)N)NC(=O)[C@H](C)NC(=O)[C@H](C)NC(=O)[C@H](CCC(N)=O)NC(=O)[C@H](CCC(=O)O)NC(=O)[C@H](CCC(=O)O)NC(=O)[C@H](CC(C)C)NC(=O)[C@H](Cc1ccc(O)cc1)NC(=O)[C@H](CO)NC(=O)[C@H](CO)NC(=O)[C@@H](NC(=O)[C@H](CC(=O)O)NC(=O)[C@H](CO)NC(=O)[C@@H](NC(=O)[C@H](Cc1ccccc1)NC(=O)[C@@H](NC(=O)CNC(=O)[C@H](CCC(=O)O)NC(=O)C(C)(C)NC(=O)[C@@H](N)Cc1c[nH]cn1)[C@@H](C)O)[C@@H](C)O)C(C)C)C(=O)N[C@@H](C)C(=O)N[C@@H](Cc1c[nH]c2ccccc12)C(=O)N[C@@H](CC(C)C)C(=O)N[C@H](C(=O)N[C@@H](CCCNC(=N)N)C(=O)NCC(=O)N[C@@H](CCCCNC(=O)COCCOCCNC(=O)COCCOCCNC(=O)CC[C@H](NC(=O)CCCCCCCCCOc1cccc(C(=O)O)c1)C(=O)O)C(=O)N[C@@H](CCCCNC(=O)COCCOCCNC(=O)COCCOCCNC(=O)CC[C@H](NC(=O)CCCCCCCCCOc1cccc(C(=O)O)c1)C(=O)O)C(=O)O)C(C)C` [Example 15, N{Epsilon-36}-[2-[2-[2-[[2-[2-[2-[[(4S)-4-carboxy-4-[10-(3-carboxyphenoxy)decanoylamino]butanoyl]amino]ethoxy]ethoxy]acetyl]amino]ethoxy]ethoxy]acetyl], N{Epsilon-37}-[2-[2-[2-[[2-[2-[2-[[(4S)-4-carboxy-4-[10-(3-carboxyphenoxy)decanoylamino]butanoyl]amino]ethoxy]ethoxy]acetyl]amino]ethoxy]ethoxy]acetyl]-[Aib8,Glu22,Arg26,Arg34,Lys36,Lys37]-GLP-1-(7-37)-peptide], the EC50 stood at 6.1 pM in data set [1] (EC50/pM (0% HSA), 0% HSA) and 44 pM in data set [1] (setting [5]). The figures for the half-life in data set [3] and in data set [4] were 111 h and 144 h, respectively.
